{"source": "paper PMC4709452", "about": "(Frontiers in Pharmacology, 2016)", "key": {"anesthetized rats [1]": {"system": "anesthetized rats", "assay": "Basal cardiovascular parameters in anesthetized, pre-treated rats", "format": "in vivo, rat", "settings": "15 min after i.v. bolus (enalaprilat 0.1 mg/kg, Plummer's inhibitor 0.75 mg/kg, icatibant 10 μg/kg, B-9858 20 μg/kg), means ± SEM", "source_text": "(§1) The femoral arterial catheter implanted to monitor direct blood pressure was connected to a pressure transducer (TSD 104A, Biopac Systems Inc., Goleta, CA, USA) coupled to a computer-based data acquisition system (MP100, Biopac Systems Inc., Goleta, CA, USA) to continuously record pulsate arterial pressure. The animals were maintained under anesthesia and were warmed with a heated pad.\n(§2) The mechanism subserving the cardiovascular responses to i.v. injections of increasing doses of the different BK agonists was first investigated in animals pretreated with the ACE inhibitor, enalaprilat. In these experiments, the animals were separated in five groups depending on the agonist tested. Enalaprilat was intravenously administered as bolus (0.1 mg/kg, 0.1 ml) following a 10 min period of baseline measurements of HR and blood pressure. Fifteen minutes later, dose-response curves to BK, BK-His-Leu, B-9972, BK-Arg, or BK-Ala-Pro were obtained in the indicated group of rats, as described above. Further experiments were made in rats pretreated with the Plummer’s inhibitor (mercaptomethyl- 3-guanidinoethylthiopropanoic acid), a high affinity inhibitor of arginine carboxypeptidases that is an arginine analog ([Plummer and Ryan, 1981]). In these experiments, the inhibitor was intravenously administered as bolus (0.75 mg/kg, 0.1 ml) followed 15 min later by the i.v. injection of increasing doses of BK or BK-Arg, in two different groups of rats. […] In these experiments, icatibant was intravenously administered as bolus (10 μg/kg, 0.1 ml) 15 min before the i.v. injection of increasing doses of BK, BK-His-Leu, B-9972, BK-Ala-Pro, or BK-Arg, in separated groups of rats, as above. The doses of different inhibitors were based on preliminary experiments and from studies performed by others ([Ishida et al., 1989]; [Wirth et al., 1991]; [Muto et al., 2003]), with deliberate low dosing for peptidase inhibitors for the sake of their selectivity of action. Whether a component of BK hemodynamic effects is mediated by the B1R was assessed in rats pre-treated with the specific B1R antagonist, B-9858 (20 μg/kg, 0.1 ml). B-9858 (Lys-Lys-[Hyp^3, Igl^5, D-Igl^7, Oic^8]des-Arg^9-BK) is a selective B1R antagonist ([Leeb-Lundberg et al., 2005]) that has been found active at the rat B1R ([Scott et al., 2003]).\nBaseline values for MAP and HR measured in the untreated control group or 15 min after i.v. pretreatment with enalaprilat, icatibant or the Plummer’s inhibitor are shown in Table 2. While no significant changes in basal values of MAP were noted between the enalaprilat and Plummer’s inhibitor pretreated groups, a slight but significant reduction in basal MAP was found between the icatibant pretreated group and the control group. Furthermore, slight but significant reductions in basal HR were noted between the icatibant and Plummer’s inhibitor pretreated groups and the control group, while a small significant increase in basal HR was found between the enalaprilat pretreated groups and the control group."}, "anesthetized rats [2]": {"system": "anesthetized rats", "assay": "In vivo vascular reactivity: hypotensive (MAP) response to i.v. bolus injections", "design": "species or system rat", "settings": "for doses at which the decrease in MAP was significant compared to vehicle: doses tested 0.025-6.4 μg/kg, untreated anesthetized rats, Dunnett's test", "method": "(§3) At the end of the acclimation period, the rats were anesthetized with sodium pentobarbital (50 mg kg^-1, i.p., supplemented as required) and had two separate catheters implanted; one into the right jugular vein [for intravenous (i.v.) injection] and the other into the left femoral artery (for direct measurement of blood pressure and heart rate (HR). In some experiments, a pulsed Doppler flow probe ([Haywood et al., 1981]) was also implanted around the distal abdominal aorta (below the ileocecal artery) through a midline abdominal incision to monitor changes in hindquarter hemodynamic, according to the method developed by [Gardiner and Bennett (1988)] and as previously described ([Bachelard et al., 1992b]). The probes wires were connected to a pulsed Doppler monitoring system (VF-1 Doppler flowmeter; Crystal Biotech, Holliston, MA, USA) modified to operate with a pulse repetition frequency of 125 kHz ([Gardiner et al., 1990]) and fitted with HVPD-20 modules. The mean Doppler signal represents the average hindquarter blood flow velocity, a relative index of blood flow. […] Experiments started at least 30 min following the end of surgery in anesthetized rats.\nas §1\nThe experiments were initiated after allowing at least 20 min for stabilization. Then, baseline measurements of HR and phasic and mean arterial blood pressure (MAP) were made over a period of 10 min. […] Peptides were dissolved in isotonic saline (0.9% NaCl) containing 0.1% BSA to prevent the adsorption of peptide to the glassware and plastic surfaces. All i.v. injections were given as 100 μl boluses which were washed in with a further 100 μl of saline (the dead space of the catheter). Only one peptide was tested per group of rats and each injection started with saline-BSA 0.1% followed by the lowest dose of peptide. The next dose was administered once all recorded cardiovascular parameters had returned to baseline after the previous injection (usually 2–10 min). At the end of the experiments each animal was euthanized with an overdose of sodium pentobarbitone (240 mg/kg, i.v.).\nas §2, with “The doses of different inhibitors were based on preliminary experiments and from studies performed by others ([Ishida et al., 1989]; [Wirth et al., 1991]; [Muto et al., 2003]), with deliberate low dosing for peptidase inhibitors for the sake of their selectivity of action. Whether a component of BK hemodynamic effects is mediated by the B1R was assessed in rats pre-treated with the specific B1R antagonist, B-9858 (20 μg/kg, 0.1 ml). B-9858 (Lys-Lys-[Hyp^3, Igl^5, D-Igl^7, Oic^8]des-Arg^9-BK) is a selective B1R antagonist ([Leeb-Lundberg et al., 2005]) that has been found active at the rat B1R ([Scott et al., 2003]).” left out"}, "anesthetized rats [3]": {"system": "anesthetized rats", "assay": "In vivo vascular reactivity: heart rate changes after i.v. bolus injections", "design": "species or system rat", "method": "as §3, with “rats. […]” for “rats.”\nThe experiments were initiated after allowing at least 20 min for stabilization. […] The next dose was administered once all recorded cardiovascular parameters had returned to baseline after the previous injection (usually 2–10 min). […]"}, "[4]": {"settings": "icatibant 10 μg/kg i.v. 15 min before, agonist 0.025-6.4 μg/kg i.v."}}, "data": [{"compound": "C[C@H](N[C@@H](CCc1ccccc1)C(=O)O)C(=O)N1CCC[C@H]1C(=O)O", "note": "[Enalaprilat, enalaprilat]", "values": [{"measurement": "Basal mean arterial blood pressure (MAP) after pre-treatment", "setting": "anesthetized rats [1]; control 103.1 ± 1.8", "value": "99.2 ± 1.5"}, {"measurement": "Basal heart rate (HR) after pre-treatment", "setting": "anesthetized rats [1]; control 393 ± 6, in bpm", "value": "416 ± 6ˆ*"}]}, {"compound": "N=C(N)NCCSCC(CS)C(=O)O", "note": "(stereo not drawn) [Plummer’s inhibitor, mercaptomethyl-3-guanidinoethylthiopropanoic acid]", "values": [{"measurement": "Basal mean arterial blood pressure (MAP) after pre-treatment", "setting": "anesthetized rats [1]; control 103.1 ± 1.8", "value": "107.1 ± 4.7"}, {"measurement": "Basal heart rate (HR) after pre-treatment", "setting": "anesthetized rats [1]; control 393 ± 6, in bpm", "value": "353 ± 17ˆ*"}]}, {"compound": "D-Arg-[Hyp^3, Thi^5, D-Tic^7, Oic^8] bradykinin [Icatibant]", "values": [{"measurement": "Basal mean arterial blood pressure (MAP) after pre-treatment", "setting": "anesthetized rats [1]; control 103.1 ± 1.8, in mmHg", "value": "95.3 ± 1.6ˆ*"}, {"measurement": "Basal heart rate (HR) after pre-treatment", "setting": "anesthetized rats [1]; control 393 ± 6, in bpm", "value": "356 ± 8ˆ**"}]}, {"compound": "D-Arg-[Hyp^3,Igl^5,Oic^7,Igl^8]-BK [B-9972]", "values": [{"measurement": "effect of enalaprilat pretreatment on the dose-dependent hypotensive response", "setting": "anesthetized rats [2]; enalaprilat 0.1 mg/kg i.v. 15 min before, agonist 0.025-6.4 μg/kg i.v.", "value": "not affected"}, {"measurement": "half-recovery time of hypotensive episodes compared with a similar dose of BK", "setting": "anesthetized rats [2]; i.v. bolus, for B-9972 the highest dose", "value": "significantly longer"}, {"measurement": "reduction of apparent hypotensive potency by icatibant", "setting": "anesthetized rats [2]; icatibant 10 μg/kg i.v. 15 min before", "value": "about 10 fold"}, {"measurement": "effect of icatibant pretreatment on the hypotensive response", "setting": "anesthetized rats [2]; [4]", "value": "significantly abated"}]}, {"compound": "Lys-Lys-[Hyp^3, Igl^5, D-Igl^7, Oic^8]des-Arg^9-BK [B-9858]", "values": [{"measurement": "Basal mean arterial blood pressure (MAP) after pre-treatment", "setting": "anesthetized rats [1]; control 103.1 ± 1.8", "value": "103.3 ± 6.2"}, {"measurement": "Basal heart rate (HR) after pre-treatment", "setting": "anesthetized rats [1]; control 393 ± 6, in bpm (unit assumed)", "value": "397 ± 11"}]}, {"compound": "bradykinin (RPPGFSPFR; Bradykinin; UniProt P01042 381-389, looked up) [BK]", "values": [{"measurement": "effect of B-9858 (B1R antagonist) pretreatment on the hypotensive response", "setting": "anesthetized rats [2]; B-9858 20 μg/kg i.v.", "value": "did not significantly modify"}, {"measurement": "effect of Plummer's inhibitor pretreatment on the hypotensive response", "setting": "anesthetized rats [2]; Plummer's inhibitor 0.75 mg/kg i.v. 15 min before", "value": "no effect"}, {"measurement": "potentiation of the hypotensive effect by enalaprilat pretreatment", "setting": "anesthetized rats [2]; enalaprilat 0.1 mg/kg i.v. 15 min before", "value": "~15", "unit": "fold"}, {"measurement": "doses at which the decrease in MAP was significant compared to vehicle", "setting": "anesthetized rats [2]; i.v. bolus", "value": "≥ 0.4", "unit": "µg/kg"}, {"measurement": "effect of icatibant pretreatment on the hypotensive response", "setting": "anesthetized rats [2]; [4]", "value": "significantly and extensively inhibited"}, {"measurement": "dose at which a significant bradycardia preceded tachycardia", "setting": "anesthetized rats [3]", "value": 6.4, "unit": "µg/kg"}, {"measurement": "doses at which tachycardia accompanied the hypotensive response", "setting": "anesthetized rats [3]; doses tested 0.025-6.4 μg/kg, compared with vehicle", "value": "≥ 0.4", "unit": "µg/kg"}]}, {"compound": "des-Arg^9-BK", "values": [{"measurement": "effect on MAP at the dose of 0.025 μg/kg", "setting": "anesthetized rats [2]; i.v. bolus, compared to vehicle, n = 9", "value": "no significant effect"}, {"measurement": "doses at which the decrease in MAP was significant compared to vehicle", "setting": "anesthetized rats [2]; i.v. bolus", "value": "≥ 0.1", "unit": "µg/kg"}]}]}
